Data published in patent US20010048946A1, “SOLID PHARMACEUTICAL DOSAGE FORMS IN FORM OF A PARTICULATE DISPERSION” (priority 1997, published 2001).

Columns and labels:
[1] = Dissolution testing, USP apparatus II, 900 mL medium, 37° C., 75 rpm; assay type: physicochemical; conditions: 100 mg CI-991
Description: (0.1 M) Phosphate solution was prepared by dissolving a calculated amount of Na2HPO4 in USP water. The pH-value of the (0.1 M) phosphate solution was then adjusted to 8.0±0.02 by 85% phosphoric acid to give a pH 8 (0.1 M) phosphate buffer. An appropriate amount of SLS was added and dissolved in the pH 8 (0.1 M) phosphate buffer to give the pH 8 (0.1 M) phosphate buffer containing 0.5% (g/mL) SLS.
(0.05 M) Phosphate solution was prepared by mixing 1:1 ratio of the aqueous solutions of (0.025 M) Na2HPO4 and (0.025 M) K2HPO4. The pH value of the (0.05 M) phosphate solution was then adjusted to 9.0±0.02 by 85% phosphoric acid to give the pH 9 (0.05 M) phosphate buffer.
The dissolution studies were conducted in 900 mL of dissolution medium maintained at 37° C., using USP apparatus II (Distek 2100A dissolution system, North Brunswick, N.J.) at 75 rpm of paddle speed. After dispersing a sample containing 100 mg of CI-991 into the dissolution medium, about 10 mL of solutions were periodically sampled and filtered by Gelman Nylon Acrodisc 0.45 μm filters to give clear filtrates (discard the first 2 mL filtrate). The extent of the drug dissolved in the dissolution medium was determined by UV spectrometry at λ=284 nm. Interference by the excipients was not observed during analysis. Experiments were run in duplicate, and the results were averaged.

[2] = gastrointestinal pH range of 1.0 to 7.5; cited from earlier work
[3] = pH 8 (0.1 M) phosphate buffer containing 0.5% SLS

**Q.** With `Cc1c(C)c2c(c(C)c1O)CCC(C)(COc1ccc(CC3SC(=O)NC3=O)cc1)O2` (stereo not shown) [CI-991 Pure Drug, Troglitazone] as the molecule, how does the “Percent of CI-991 Dissolved in Solution at 5 min” value [1, 3] read?
**A.** 3.9 ± 0.1%

**Q.** And the “Percent of CI-991 Dissolved in Solution at 10 min” value [1, 3]?
**A.** 6.3 ± 0.1%

**Q.** And the “Percent of CI-991 Dissolved in Solution at 15 min” value [1, 3]?
**A.** 8.2 ± 0.1%

**Q.** What about the “Percent of CI-991 Dissolved in Solution at 5 min” value ([1]; pH 9 (0.05 M) phosphate buffer) of the same molecule?
**A.** 0.5 ± 0.1%

**Q.** What about the “Percent of CI-991 Dissolved in Solution at 10 min” value ([1]; pH 9 (0.05 M) phosphate buffer) of the same molecule?
**A.** 0.4 ± 0.1%

**Q.** And the “Percent of CI-991 Dissolved in Solution at 15 min” value ([1]; pH 9 (0.05 M) phosphate buffer)?
**A.** 1.2 ± 0.2%

**Q.** And the “water solubility (in words)” value [2]?
**A.** practically water-insoluble
